Test [1] relates to human-derived eosinophils. Kind of test: Eotaxin-induced chemotaxis of cultured eosinophils. It is filed as cell-based. Particulars: 10.00 µM compound, human eotaxin 1 x 10^-9 M, 37°C for 1 hour; for inhibition at 10 µM: Eosinophil. On the procedure:
The inhibitory activity of the compounds against eotaxin-mediated chemotaxis of human-derived eosinophils was determined assay described below. Eosinophils were prepared from culture of human cord blood mononuclear cells as described by Ohashi, H. et al., Int Arch Allergy Immunol. (1999) 118, 44-50. For the assay, eosinophils were resuspended at 1 x 10^7 cells/ml in assay medium (RPMI 1640 medium containing 0.1 % bovine serum albumin (BSA)). The chemotaxis assay was performed in a 24-well culture plate. Human eotaxin suspended in assay medium was added into wells at 1 x 10^-9 M with test compounds at various concentrations. For a positive control, eotaxin was added without a test compound, and for a negative control, neither eotaxin nor a test compound was added to the wells. Chemotaxicell (Kurabo Co., Ltd.) having 5 micrometers pore size were inserted into each well and 100 microliters of eosinophil suspension were added to the top chamber. The plates were incubated at 37°C for 1 hour. After incubation, migrated cells in lower wells were diluted and counted by particle size distribution analyzer (CDP-500, Sysmex Co., Ltd.).

In test [2] the target is T1, CCR-3 (Homo sapiens, UniProt P51677).
T1 sequence (P51677 1-355): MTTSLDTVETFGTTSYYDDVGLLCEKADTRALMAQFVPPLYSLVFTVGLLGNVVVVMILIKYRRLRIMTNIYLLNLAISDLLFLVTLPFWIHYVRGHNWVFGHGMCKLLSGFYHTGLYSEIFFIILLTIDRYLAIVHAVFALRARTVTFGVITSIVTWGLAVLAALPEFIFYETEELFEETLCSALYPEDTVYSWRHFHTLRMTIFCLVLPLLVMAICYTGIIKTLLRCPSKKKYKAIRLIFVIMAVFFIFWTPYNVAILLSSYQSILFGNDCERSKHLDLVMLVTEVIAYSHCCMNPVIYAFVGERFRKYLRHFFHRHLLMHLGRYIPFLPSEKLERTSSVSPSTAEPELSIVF
Kind of test: Eotaxin-induced chemotaxis of CCR-3 transfectant cells (CCR3/U937). It is filed as cell-based. Particulars: eotaxin 1 x 10^-9 M; for inhibition at 10 µM: U-937; for inhibition at 10 µM / Chemotaxis Assay 10 µM (inhibition %): 10 µM test compound; for CCR-3 Transfectant Chemotaxis Assay 6.25 µg/ml (inhibition %): 6.25 µg/ml test compound, CCR3/U937 cells (Table 3b). The arrangement: expressed in transfected cells; host or cells: U937.

Test [3] deals with collagen-induced arthritis. In words: Type II collagen-induced arthritis in mice, clinical score. Format: in vivo, Male DBA/1 mice. Particulars: 20 mg/kg per day subcutaneously starting at 2nd immunization; versus control vehicle; Figure 1A/1B.
In test [4] the target is T1, CCR-3. Kind of test: Calcium mobilization assay (inhibition of eotaxin-induced intracellular calcium mobilization in CCR3/HEK293 cells). The arrangement: expressed in transfected cells. Format: cell-based. Particulars: 6.25 µg/ml test compound; eotaxin 10 nM; CCR3/HEK293 cells (Table 2a). On the procedure:
Compounds 93-162 used in this assay were synthesized by using the method described in Example 6.
CCR-3 transfectant cells (CCR3/HEK293) were isolated and resuspended with assay buffer (20 mM HEPES, 125 mM NaCl, 5 mM KCl; 0.5 mM glucose, 1 mM CaCl2, 1 mM MgCl2, 0.1 % BSA). After washing CCR3/HEK293 cells with assay buffer, cells were loaded with Fura-2/AM in assay buffer for 1 hour at room temperature. Cells were washed and resuspended with assay buffer at 5 x 10^6 cells/ml in assay buffer, and placed in a tissue culture plate (Falcon, no. 3296). Test compounds dissolved in DMSO were added to the wells, followed by eotaxin (10 nM at final concentration). Cells were excited at 340 nm and 380 nm in a fluorimeter (ARGUS50, FDSS2000, Hamamatsu Photonics) and the relative ratio of the fluorescence emitted at 510 nm was recorded. For a control, DMSO without a test compound was added. Intracellular calcium mobilization was calculated as described in Krogel C. et al. , FEBS Let. (1989) 243 , 41-46.
In general terms: Calcium flux is commonly read through the fluorescence of an indicator in the cells.

As a reminder, the inhibition is the change of the read-out against control, counted positive when it falls. Consider `CCN(CCCNC(=O)Nc1ccccc1)CCc1ccc(Cl)cc1` [Compound 1, N-Phenylcarbamoyl-N'-[2-(4-chlorophenyl)ethyl]-N'-ethyl-1,3-diaminopropane], for which the inhibition at 10 µM (in test [1]; on CCR-3 [2] (CCR3/U937 cells (Table 3a))) was 100% each time.
Take `CCN(CCCNC(=O)Nc1ccc(Br)cc1)CCc1ccc(Cl)cc1` [Compound 3, N-(4-Bromophenylcarbamoyl)-N'-[2-(4-chlorophenyl)ethyl]-N'-ethyl-1,3-diaminopropane]: the inhibition at 10 µM (in test [1]; on CCR-3 [2] (CCR3/U937 cells (Table 3a))) was 100% in each case.
In the case of `COC(=O)CCCN(CCCNC(=O)Nc1ccc(Br)cc1)Cc1ccco1` [Compound 38], in test [1], the “Cultured Eosinophil Chemotaxis assay 10.00 µM (inhibition %)” value worked out at 11%. Further, on CCR-3 [2] (CCR3/U937 cells (Table 3a)), the “Chemotaxis Assay 10 µM (inhibition %)” value is on record as 46%.
With `O=C(O)CCCN(CCCNC(=O)Nc1ccc(Br)cc1)C1CCCc2ccccc21` (centres unmarked) [Compound 60, 4-[[3-(4-Bromophenylureido)propyl](1,2,3,4-tetrahydro-1-naphthyl)amino]butanoic acid], the inhibition at 10 µM in test [1] worked out at 100%; on CCR-3 [2] (CCR3/U937 cells (Table 3a)), 98%. Also, in test [3], the “clinical score, collagen-induced arthritis” value is “marked prevention in clinical score”.
For `C[C@H](c1ccccc1)N(CCCNC(=O)Nc1ccc(Br)cc1)CCCC(=O)O` [Compound 61, 4-[[3-(4-Bromophenylureido)propyl][(1R)-1-phenylethyl]amino]-butanoic acid], the inhibition at 10 µM (in test [1]; against CCR-3 [2] (CCR3/U937 cells (Table 3a))) was 100% throughout.
Consider `O=C(O)CCCN(CCCNC(=O)Nc1ccc(Cl)c(Cl)c1)C1CCCc2ccccc21` (centres unmarked) [Compound 65, 4-[[3-(3,4-Dichlorophenylureido)propyl](1,2,3,4-tetrahydro-1-naphthyl)amino]butanoic acid], for which the inhibition at 10 µM (in test [1]; on CCR-3 [2] (CCR3/U937 cells (Table 3a))) was 100% each time.
For the molecule `COc1cc(CN(CCCNC(=O)Nc2ccc(Br)cc2)CCCC(=O)O)cc(OC)c1OC` [Compound 66], the “Cultured Eosinophil Chemotaxis assay 10.00 µM (inhibition %)” value in test [1] was 44%. For the same molecule, the “Chemotaxis Assay 10 µM (inhibition %)” value at CCR-3 [2] (CCR3/U937 cells (Table 3a)) was 32%.
Consider `O=C(O)CCCN(CCCNC(=O)Nc1ccc(Br)cc1)Cc1ccccc1` [Compound 67], for which, in test [1], the “Cultured Eosinophil Chemotaxis assay 10.00 µM (inhibition %)” value came out at 71%. The “Chemotaxis Assay 10 µM (inhibition %)” value on CCR-3 [2] (CCR3/U937 cells (Table 3a)) stood at 100%.
For the molecule `CC[N+](CC)(CCCNC(=O)Nc1ccccc1)CCc1ccc(Cl)cc1` [Compound 91, [3-(Phenylureido)propyl][2-(4-chlorophenyl)ethyl]-diethylammonium iodide], the inhibition at 10 µM (in test [1]; on CCR-3 [2] (CCR3/U937 cells (Table 3c))) was 100% each time.
With `CC[N+](CC)(CCCNC(=O)Nc1ccc(Br)cc1)CCc1ccc(Cl)cc1` [Compound 92, [3-(4-Bromophenylureido)propyl][2-(4-chlorophenyl)ethyl]-diethylammonium iodide], the inhibition at 10 µM (in test [1]; against CCR-3 [2] (CCR3/U937 cells (Table 3c))) was 100% each time.
Take `O=C(NCCCN(CCOCc1ccccc1)CCc1c[nH]cn1)Nc1ccc(Br)cc1` [Compound 121]: the “Ca^2+ mobilization 6.25 µg/ml (inhibition %)” value on CCR-3 [4] turned out to be 52%. Besides, the “CCR-3 Transfectant Chemotaxis Assay 6.25 µg/ml (inhibition %)” value on CCR-3 [2] stood at 64%.
The corresponding values for `CC(C)CN(CCCNC(=O)Nc1ccc(Br)cc1)C1CCCc2ccccc21` (centres unmarked) [Compound 122] are 66% and 92%.
For the molecule `CCOC(=O)C1CC1CN(CCCNC(=O)Nc1ccc(Br)cc1)C1CCCc2ccccc21` (centres unmarked) [Compound 125], at CCR-3 [4], the “Ca^2+ mobilization 6.25 µg/ml (inhibition %)” value is given as 65%. For the same molecule, on CCR-3 [2], the “CCR-3 Transfectant Chemotaxis Assay 6.25 µg/ml (inhibition %)” value is 90%.
As to `CC(C)CN(CCCNC(=O)Nc1ccc(Br)cc1)Cc1ccc2c(c1)OCO2` [Compound 126], the “Ca^2+ mobilization 6.25 µg/ml (inhibition %)” value at CCR-3 [4] worked out at 54%. Also, the “CCR-3 Transfectant Chemotaxis Assay 6.25 µg/ml (inhibition %)” value at CCR-3 [2] was 54%.
Consider `O=C(NCCCN(Cc1ccc2c(c1)OCO2)C[C@@H]1CCCN1)Nc1ccc(Br)cc1` [Compound 128], for which the “Ca^2+ mobilization 6.25 µg/ml (inhibition %)” value at CCR-3 [4] was 55%. At CCR-3 [2], the “CCR-3 Transfectant Chemotaxis Assay 6.25 µg/ml (inhibition %)” value turned out to be 33%.
The corresponding values for `Cc1ccc(CCN(CCCNC(=O)Nc2ccc(Br)cc2)CCCC(=O)O)cc1` [Compound 132] are 55% and 11%.
As to `O=C(O)CCCN(CCCNC(=O)Nc1ccc(Br)cc1)CCc1ccc(Cl)c(Cl)c1` [Compound 133], at CCR-3 [4], the “Ca^2+ mobilization 6.25 µg/ml (inhibition %)” value was 63%. In addition, the “CCR-3 Transfectant Chemotaxis Assay 6.25 µg/ml (inhibition %)” value on CCR-3 [2] was found to be 21%.
The corresponding values for `Cc1cccc(NC(=O)NCCCN(C[C@@H]2CCCN2)C2CCCc3ccccc32)c1` (some centres unmarked) [Compound 135] are 57% and 12%.
The corresponding values for `Cc1cccc(NC(=O)NCCCN(Cc2ccc3c(c2)OCO3)CC(C)C)c1` [Compound 136] are 63% and 32%.
The corresponding values for `CCN(CCCNC(=O)Nc1cccc(C)c1)CCc1ccccc1` [Compound 137] are 50% and 40%.
Turning to `CCOC(=O)C1CC1CN(CCCNC(=O)Nc1cccc(C)c1)CCc1ccccc1` (centres unmarked) [Compound 138], the “Ca^2+ mobilization 6.25 µg/ml (inhibition %)” value on CCR-3 [4] is given as 56%. In addition, the “CCR-3 Transfectant Chemotaxis Assay 6.25 µg/ml (inhibition %)” value on CCR-3 [2] turned out to be 31%.
The corresponding values for `CCOC(=O)C1CC1CN(CCCNC(=O)Nc1cccc(Cl)c1)C1CCCc2ccccc21` (centres unmarked) [Compound 149] are 56% and 31%.
The corresponding values for `CCOC(=O)C1CC1CN(CCCNC(=O)Nc1cccc(Cl)c1)CCc1ccc(Cl)c(Cl)c1` (centres unmarked) [Compound 155] are 69% and 56%.
